The values below come from patent US4542025A, “Injectable, long-acting microparticle formulation for the delivery of anti-inflammatory agents” (priority 1984, dated 1985).

Molecules are shown by their SMILES.

The series can be described thus: In vitro release of methylprednisolone acetate into 50 wt % aqueous ethanol. The format is physicochemical. To be noted: unencapsulated, 37° C., 120 cycles/min.

Protocol: The in vitro release of methylprednisolone acetate from microparticles into a receiving fluid comprising 50 wt % of aqueous ethanol maintained at 37° C. was measured.
Triplicate samples of 20 mg of microparticles were weighed and each sample was placed in an 8-oz bottle containing 150 mL of 50 wt % aqueous ethanol. […] Next, the bottles were sealed with a thin sheet of Teflon and a screw cap to prevent evaporation. The bottles were then placed in an Eberbach shaker bath oscillating at 120 cycles/min and maintained at 37° C. The amount of drug released from the microparticles as a function of time was measured by determining the absorbance of the aqueous ethanol receiving fluid at 247 nm and by using the following equation based on Beer's Law.
wherein C is the concentration of methylprednisolone acetate in g/ml.

Consider `CC(=O)OCC(=O)[C@@]1(O)CC[C@H]2[C@@H]3C[C@H](C)C4=CC(=O)C=C[C@]4(C)[C@H]3[C@@H](O)C[C@@]21C`, for which the “time to complete dissolution” value amounted to 30 min.
